Assay results published in ChEMBL document CHEMBL3425471, “Design, synthesis and biological evaluation of novel pyrazoline-containing derivatives as potential tubulin assembling inhibitors” (Eur J Med Chem, 2015).

Legend:
[1] = biological target: Tubulin (Bos taurus, UniProt Q6B856+Q862L2+Q862F3); test: Inhibition of bovine brain tubulin polymerization after 20 mins by turbidimetric analysis
[2] = test system: A549; test: cells; settings: Homo sapiens, A549, 24 h
Description: Antiproliferative activity against human A549 cells assessed as reduction in cell viability after 24 hrs by MTT assay

[3] = test system: MCF7; test: cells; settings: Homo sapiens, MCF7, 24 h
Description: Antiproliferative activity against human MCF7 cells assessed as reduction in cell viability after 24 hrs by MTT assay

[4] = test system: HepG2; test: cells; settings: Homo sapiens, HepG2, 24 h
Description: Antiproliferative activity against human HepG2 cells assessed as reduction in cell viability after 24 hrs by MTT assay

IC50 [1]	IC50 [2]	IC50 [3]	IC50 [4]	SMILES
> 40 µM	> 10 µM	> 10 µM	> 10 µM	COc1ccc(C2=NN(C(=O)c3ccc(Br)cc3)C(c3ccc4c(c3)OCO4)C2)cc1 (stereo unspecified)
22.06 µM	3.19 µM	4.46 µM	6.26 µM	COc1ccc(C2=NN(C(=O)c3ccc(Br)cc3)C(c3ccc4c(c3)OCO4)C2)cc1OC (stereo unspecified)
25.06 µM	4.16 µM	5.26 µM	6.22 µM	COc1cc(C2=NN(C(=O)c3ccc(Br)cc3)C(c3ccc4c(c3)OCO4)C2)cc(OC)c1OC (stereo unspecified)
> 40 µM	> 10 µM	> 10 µM	> 10 µM	O=C(c1ccc(Br)cc1)N1N=C(c2ccc(Br)cc2)CC1c1ccc2c(c1)OCO2 (stereo unspecified)
> 40 µM	> 10 µM	> 10 µM	> 10 µM	O=C(c1ccc(Br)cc1)N1N=C(c2ccc(Cl)cc2)CC1c1ccc2c(c1)OCO2 (stereo unspecified)
> 40 µM	2.45 µM	5.11 µM	> 10 µM	O=C(c1ccc(Br)cc1)N1N=C(c2ccc(F)cc2)CC1c1ccc2c(c1)OCO2 (stereo unspecified)
> 40 µM	> 10 µM	> 10 µM	> 10 µM	Cc1ccc(C2=NN(C(=O)c3ccc(Br)cc3)C(c3ccc4c(c3)OCO4)C2)cc1 (stereo unspecified)
> 40 µM	> 10 µM	> 10 µM	> 10 µM	Cc1cccc(C2=NN(C(=O)c3ccc(Br)cc3)C(c3ccc4c(c3)OCO4)C2)c1 (stereo unspecified)
> 40 µM	> 10 µM	> 10 µM	> 10 µM	O=C(c1ccc(Br)cc1)N1N=C(c2ccccc2)CC1c1ccc2c(c1)OCO2 (stereo unspecified)
7.69 µM	1.08 µM	1.77 µM	1.86 µM	COc1ccc(C2=NN(C(=O)c3ccc(F)cc3)C(c3ccc4c(c3)OCO4)C2)cc1 (stereo unspecified)
> 40 µM	7.14 µM	8.66 µM	8.38 µM	COc1ccc(C2=NN(C(=O)c3ccc(Cl)cc3)C(c3ccc4c(c3)OCO4)C2)cc1 (stereo unspecified)
25.79 µM	4.08 µM	6.41 µM	5.05 µM	COc1ccc(C(=O)N2N=C(c3ccc(OC)cc3)CC2c2ccc3c(c2)OCO3)cc1 (stereo unspecified)
15.73 µM	2.73 µM	3.56 µM	3.77 µM	COc1ccc(C2=NN(C(=O)c3ccc(OC)c(OC)c3)C(c3ccc4c(c3)OCO4)C2)cc1 (stereo unspecified)
35.45 µM	5.21 µM	5.37 µM	6.25 µM	COc1ccc(C2=NN(C(=O)c3ccccc3)C(c3ccc4c(c3)OCO4)C2)cc1 (stereo unspecified)
2.09 µM	0.78 µM	0.22 µM	1.06 µM	COc1cc(C2=NN(C(=O)c3ccc(F)cc3)C(c3ccc4c(c3)OCO4)C2)cc(OC)c1OC (stereo unspecified)
21.73 µM	4.26 µM	4.77 µM	2.14 µM	COc1cc(C2=NN(C(=O)c3ccc(Cl)cc3)C(c3ccc4c(c3)OCO4)C2)cc(OC)c1OC (stereo unspecified)

SMILES	IC50 [1]	IC50 [2]	IC50 [3]	IC50 [4]
COc1ccc(/C=C\c2cc(OC)c(OC)c(OC)c2)cc1O [COMBRETASTATIN A4]	–	0.14 µM	–	0.17 µM
